Holding throughout (type): cell-based
Assay [1] concerns the target T1, GABA transporter 2 (Mus musculus, UniProt P31651).
T1 sequence (P31651 whole entry): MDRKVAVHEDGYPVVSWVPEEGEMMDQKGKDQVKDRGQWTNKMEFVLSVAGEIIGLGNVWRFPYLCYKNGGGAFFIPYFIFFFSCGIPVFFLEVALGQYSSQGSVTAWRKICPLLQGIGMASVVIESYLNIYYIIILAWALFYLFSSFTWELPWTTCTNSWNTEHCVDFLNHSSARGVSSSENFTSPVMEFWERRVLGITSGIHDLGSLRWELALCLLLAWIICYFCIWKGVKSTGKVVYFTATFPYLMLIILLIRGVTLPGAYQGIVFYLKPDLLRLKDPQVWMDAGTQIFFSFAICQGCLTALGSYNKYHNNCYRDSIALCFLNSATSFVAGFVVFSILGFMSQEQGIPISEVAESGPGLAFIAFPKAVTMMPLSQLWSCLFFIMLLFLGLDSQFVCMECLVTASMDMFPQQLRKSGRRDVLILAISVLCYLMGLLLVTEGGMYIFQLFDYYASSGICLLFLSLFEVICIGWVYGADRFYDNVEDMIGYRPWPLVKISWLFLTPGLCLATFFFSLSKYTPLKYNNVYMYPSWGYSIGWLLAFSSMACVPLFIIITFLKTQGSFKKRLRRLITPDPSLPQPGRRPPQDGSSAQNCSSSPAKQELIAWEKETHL
The experiment in a line: Inhibition of mouse GAT2 expressed in HEK293 cells assessed as decrease in [3H]GABA uptake preincubated for 25 mins followed by [3H]GABA addition measured after 10 mins by liquid scintillation counter method.

Assay [2] concerns the target T2, GABA transporter 3 (Mus musculus, UniProt P31649).
T2 sequence (P31649 whole entry): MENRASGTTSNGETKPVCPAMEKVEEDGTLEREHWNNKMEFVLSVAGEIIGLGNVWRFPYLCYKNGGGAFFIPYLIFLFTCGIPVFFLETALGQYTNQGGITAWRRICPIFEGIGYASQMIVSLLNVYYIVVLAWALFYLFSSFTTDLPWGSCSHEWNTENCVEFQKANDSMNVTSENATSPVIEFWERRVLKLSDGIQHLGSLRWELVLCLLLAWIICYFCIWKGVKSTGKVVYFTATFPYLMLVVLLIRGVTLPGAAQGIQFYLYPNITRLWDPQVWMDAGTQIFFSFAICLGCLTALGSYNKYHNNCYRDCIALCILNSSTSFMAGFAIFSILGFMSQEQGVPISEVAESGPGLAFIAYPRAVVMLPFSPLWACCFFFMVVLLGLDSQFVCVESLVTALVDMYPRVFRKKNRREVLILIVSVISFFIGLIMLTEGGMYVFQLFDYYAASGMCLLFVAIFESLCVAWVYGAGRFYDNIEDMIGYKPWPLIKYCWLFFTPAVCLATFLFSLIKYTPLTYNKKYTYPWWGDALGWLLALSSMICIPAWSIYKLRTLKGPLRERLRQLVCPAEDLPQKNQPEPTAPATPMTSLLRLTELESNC
Description: Inhibition of mouse GAT3 expressed in HEK293 cells assessed as decrease in [3H]GABA uptake preincubated for 25 mins followed by [3H]GABA addition measured after 4 mins by liquid scintillation counter method.

Assay [3] addresses T3, GABA transporter 4 (Mus musculus, UniProt P31650).
T3 sequence (P31650 whole entry): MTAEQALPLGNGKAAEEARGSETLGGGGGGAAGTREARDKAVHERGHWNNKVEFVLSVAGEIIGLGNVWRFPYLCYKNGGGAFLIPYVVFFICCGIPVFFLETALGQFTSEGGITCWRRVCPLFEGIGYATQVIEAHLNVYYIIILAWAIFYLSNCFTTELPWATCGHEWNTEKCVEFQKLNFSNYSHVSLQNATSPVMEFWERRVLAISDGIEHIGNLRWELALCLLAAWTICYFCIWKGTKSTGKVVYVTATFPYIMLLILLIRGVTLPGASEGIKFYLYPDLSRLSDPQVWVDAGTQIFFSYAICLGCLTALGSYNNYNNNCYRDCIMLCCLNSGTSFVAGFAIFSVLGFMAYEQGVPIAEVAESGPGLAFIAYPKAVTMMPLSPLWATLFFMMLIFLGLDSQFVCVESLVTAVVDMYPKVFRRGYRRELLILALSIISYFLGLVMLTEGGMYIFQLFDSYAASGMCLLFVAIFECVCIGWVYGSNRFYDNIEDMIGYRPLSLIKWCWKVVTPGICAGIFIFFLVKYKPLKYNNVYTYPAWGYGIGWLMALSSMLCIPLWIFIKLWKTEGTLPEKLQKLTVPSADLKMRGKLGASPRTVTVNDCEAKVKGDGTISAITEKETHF
The experiment in a line: Inhibition of mouse GAT4 expressed in HEK293 cells assessed as decrease in [3H]GABA uptake preincubated for 25 mins followed by [3H]GABA addition measured after 4 mins by liquid scintillation counter method.

Assay [4] concerns the target Sodium- and chloride-dependent GABA transporter 1 (Mus musculus) (UniProt P31648). The experiment in a line: Inhibition of mouse GAT1 expressed in HEK293 cells assessed as decrease in [3H]GABA uptake at 100 uM preincubated for 25 mins followed by [3H]GABA addition measured after 4 mins by liquid scintillation counter method.
Assay [5] has as its target T4, GABA transporter 4 (Mus musculus) (UniProt P31650).
T4 sequence (whole entry): T3 sequence (P31650 whole entry)
Description: Inhibition of mouse GAT4 expressed in HEK293 cells assessed as decrease in [3H]GABA uptake at 100 uM preincubated for 25 mins followed by [3H]GABA addition measured after 4 mins by liquid scintillation counter method.

In assay [6] the target is T5, GABA transporter 2 (Mus musculus) (UniProt P31651).
T5 sequence (whole entry): T1 sequence (P31651 whole entry)
Description: Inhibition of mouse GAT2 expressed in HEK293 cells assessed as decrease in [3H]GABA uptake at 100 uM preincubated for 25 mins followed by [3H]GABA addition measured after 10 mins by liquid scintillation counter method.

The target in assay [7] is T6, GABA transporter 3 (Mus musculus) (UniProt P31649).
T6 sequence (whole entry): T2 sequence (P31649 whole entry)
Description: Inhibition of mouse GAT3 expressed in HEK293 cells assessed as decrease in [3H]GABA uptake at 100 uM preincubated for 25 mins followed by [3H]GABA addition measured after 4 mins by liquid scintillation counter method.

For assay [8], the target named is Sodium- and chloride-dependent GABA transporter 1 (Mus musculus, UniProt P31648). Description: Inhibition of mouse GAT1 expressed in HEK293 cells assessed as decrease in [3H]GABA uptake preincubated for 25 mins followed by [3H]GABA addition measured after 4 mins by liquid scintillation counter method.

These results are taken from ChEMBL document CHEMBL3877251, “Synthesis and biological evaluation of a series of N-alkylated imidazole alkanoic acids as mGAT3 selective GABA uptake inhibitors” (Eur J Med Chem, 2016).

By IC50 is commonly meant the concentration that inhibits the measured activity by half. As a reminder, the inhibition is the percentage by which the read-out fell short of the control.

`COc1ccc(C2(/C=C/Cn3ccnc3CCC(=O)O)c3ccccc3-c3ccccc32)cc1`: the IC50 was 25.1 µM in assay [1], 35.5 µM in assay [2] and 43.7 µM in assay [3]. In addition, the inhibition in assay [4] was 48.5%.

In the case of `COc1ccc(C2(OCCn3cncc3CC(=O)O)c3ccccc3-c3ccccc32)cc1`, the inhibition in assay [5] came out at 46%; in assay [4], 67.2%; in assay [6], 57.9%; in assay [7] it was 50.8%.

Turning to `COc1ccc(C2(OCCOCCn3ccnc3CCC(=O)O)c3ccccc3-c3ccccc32)cc1`, the inhibition in assay [5] amounted to 50.7%; in assay [6], 48.3%. Also, the IC50 in assay [2] is 28.2 µM; in assay [8] it was 37.2 µM.

Turning to `COc1ccc(C2(OCCCCn3cncc3CC(=O)O)c3ccccc3-c3ccccc32)cc1`, the IC50 in assay [1] is 22.9 µM. Further, the figures for the inhibition in assay [5], in assay [4] and in assay [7] were 59%, 70.8% and 41.7%, respectively.

For the compound `COc1ccc(C2(OCCn3ccnc3CCC(=O)O)c3ccccc3-c3ccccc32)cc1`, the inhibition amounted to 58.3% in assay [5], 64.8% in assay [4], 53% in assay [6] and 43.2% in assay [7].

As to `COc1ccc(C2(OC/C=C/Cn3ccnc3CCC(=O)O)c3ccccc3-c3ccccc32)cc1`, in assay [1], the IC50 was 32.4 µM. Besides, the figures for the inhibition in assay [5], in assay [4] and in assay [7] were 61.4%, 55.8% and 43.9%, respectively.

Turning to `O=C(O)CCc1nccn1CCC=C(c1ccccc1)c1ccccc1`, the IC50 was 58.9 µM in assay [1] and 74.1 µM in assay [8]. In addition, the values for the inhibition in assay [5] and in assay [7] were 53.7% and 48.1%, respectively.

Regarding `O=C(O)/C=C/c1ncc[nH]1`, the inhibition in assay [5] is 47.2%; in assay [4], 73.7%; in assay [6] it was 77.3%.

Take `COc1ccc(C2(OCCCCCn3cncc3CC(=O)O)c3ccccc3-c3ccccc32)cc1`: the inhibition is 77.4% in assay [5], 38.5% in assay [6] and 68% in assay [7]. Moreover, in assay [8], the IC50 is 79.4 µM.

As for `COc1ccc(C2(OC/C=C\Cn3ccnc3CCC(=O)O)c3ccccc3-c3ccccc32)cc1`, the IC50 in assay [1] is 37.2 µM; in assay [2] it was 15.8 µM; in assay [8], 70.8 µM; in assay [3] it was 13.2 µM.

Turning to `COc1ccc(C2(OCCCn3cnc(CC(=O)O)c3)c3ccccc3-c3ccccc32)cc1`, the IC50 in assay [1] was 97.7 µM. In addition, the inhibition in assay [5] worked out at 61.4%; in assay [4], 84.2%; in assay [7] it was 51.4%.

In the case of `COc1ccc(C2(/C=C/COCCn3ccnc3CCC(=O)O)c3ccccc3-c3ccccc32)cc1`, the IC50 was 30.9 µM in assay [1], 24.5 µM in assay [2], 26.3 µM in assay [8] and 21.9 µM in assay [3].

For the compound `COc1ccc(C2(/C=C/Cn3cnc(CC(=O)O)c3)c3ccccc3-c3ccccc32)cc1`, the half-maximal inhibitory concentration (IC50) in assay [2] was 47.9 µM; in assay [3] it was 39.8 µM. In addition, the inhibition stood at 62.4% in assay [4] and 24.2% in assay [6].

As for `COc1ccc(C2(/C=C/Cn3cncc3CC(=O)O)c3ccccc3-c3ccccc32)cc1`, the IC50 in assay [1] was 166 µM; in assay [2], 79.4 µM; in assay [8], 126 µM; in assay [3], 110 µM.

For the compound `COc1ccc(C2(OCCCn3ccnc3CCC(=O)O)c3ccccc3-c3ccccc32)cc1`, the inhibition in assay [5] was 55.4%; in assay [6], 31.2%; in assay [7] it was 48.6%. For the same compound, in assay [8], the IC50 is 100 µM.

For the compound `COc1ccc(C2(OCCn3cnc(CC(=O)O)c3)c3ccccc3-c3ccccc32)cc1`, the inhibition came out at 85.4% in assay [5], 56.6% in assay [4], 44% in assay [6] and 46.7% in assay [7].

`COc1ccc(C2(OCCCCCn3ccnc3CCC(=O)O)c3ccccc3-c3ccccc32)cc1`: the IC50 was 12.6 µM in assay [1], 23.4 µM in assay [2], 11.7 µM in assay [8] and 29.5 µM in assay [3].

Turning to `COc1ccc(C2(OCCCCn3cnc(CC(=O)O)c3)c3ccccc3-c3ccccc32)cc1`, the IC50 in assay [1] is 24 µM; in assay [2], 39.8 µM; in assay [3], 49 µM. Further, the inhibition in assay [4] is 64.9%.

`COc1ccc(C2(OCCCn3cncc3CC(=O)O)c3ccccc3-c3ccccc32)cc1`: the inhibition in assay [5] was 55.6%; in assay [4], 50.1%; in assay [6], 70.1%. For the same compound, the IC50 in assay [2] is 81.3 µM.

Turning to `COc1ccc(C2(OCCCCCn3ccnc3/C=C/C(=O)O)c3ccccc3-c3ccccc32)cc1`, the results for the IC50 in assay [1], in assay [8] and in assay [3] were 28.8 µM, 12.6 µM and 10.2 µM, respectively.

In the case of `O=C(O)CCc1ncc[nH]1`, the IC50 in assay [1] is 525 µM; in assay [2], 28.8 µM; in assay [3] it was 309 µM. In addition, the inhibition in assay [4] was 62.8%.

For the compound `COc1ccc(C2(OCCCCCn3cnc(CC(=O)O)c3)c3ccccc3-c3ccccc32)cc1`, the IC50 is 61.7 µM in assay [1], 97.7 µM in assay [2] and 105 µM in assay [3]. Moreover, in assay [4], the inhibition was found to be 72.7%.

Consider `COc1ccc(C2(OCCCCn3ccnc3CCC(=O)O)c3ccccc3-c3ccccc32)cc1`, for which the IC50 was 25.1 µM in assay [1], 87.1 µM in assay [2], 141 µM in assay [8] and 174 µM in assay [3].

In the case of `Cc1ccsc1C(=CCCN1CCC[C@@H](C(=O)O)C1)c1sccc1C`, the inhibition came out at 73% in assay [5], 52% in assay [6] and 64% in assay [7].
